Measurements reported in publication PMC11887451, “Leveraging Immunogenic Cell Death to Enhance the Immune Response against Malignant Pleural Mesothelioma Tumors” (Journal of the American Chemical Society, 2025).

Tests used:
[1] = system: murine malignant mesothelioma cell line AB12; assay: MTT cytotoxicity assay, 72 h, AB12; format: cell-based, mouse; conditions: exposure time 72 h
[2] = system: human malignant mesothelioma cell line JU77; assay: MTT cytotoxicity assay, 72 h, JU77; format: cell-based; conditions: exposure time 72 h
[3] = system: human malignant mesothelioma cell line LO68; assay: MTT cytotoxicity assay, 72 h, LO68; format: cell-based; conditions: exposure time 72 h
[4] = system: patient-derived VMC23 cell line (epithelioid MPM); assay: MTT cytotoxicity assay, 72 h, VMC23; format: cell-based, human; conditions: exposure time 72 h
[5] = system: patient-derived Meso84 cell line (sarcomatoid MPM); assay: MTT cytotoxicity assay, 72 h, Meso84; format: cell-based, human; conditions: exposure time 72 h
Description: Human malignant mesothelioma cancer cell lines JU77 and LO68 were obtained from Cell Bank Australia (Children's Medical Research Institute, Westmead, Australia). Mouse malignant mesothelioma cancer cell line AB12, human nonmalignant mesothelioma cancer cell line Met5A (mesothelial cells), mouse macrophage cell line J774 and human monocytic cell line THP-1 were obtained from American Type Culture Collection (ATCC) (Rockville, MD, USA). Human malignant mesothelioma cell lines VMC23 (epithelial), Meso82 (sarcomatous), Meso92 (biphasic), were kindly provided by Prof. Walter Berger (Medical University of Vienna). All cells except for J774 were cultured in RPMI and J774 cells were cultured in DMEM. Both types of media were supplemented with 10% FBS and 1% penicillin-streptomycin (10,000 U/mL). Cells were grown in tissue culture flasks (75 cm2 and 25 cm2, SPL Life Sciences Co., Ltd., Korea). All cell lines were grown at 37 °C in a humidified atmosphere of 95% air and 5% CO 2 and passaged when they reached 80–90% confluency. All Au stock solutions were prepared in 1% DMSO in the respected medium, ensuring that cell viability was not inhibited.
(§1) The cytotoxicity of compounds was determined using an MTT colorimetric test. The cells were harvested from culture flasks by trypsinization and seeded into Cellstar 96 -well microculture plates (Greiner Bio -One) at the seeding density of 6000 cells per well (6 × 10^4 cells/mL). After
(§2) the cells were allowed to resume exponential growth for 16 h, they were exposed to drugs at
(§3) different concentrations in media for 72 h. The drugs were diluted in a complete medium at the desired concentration added to each well (100 μL) and serially diluted in other wells. After exposure for 72 h, the media was replaced with MTT in media (5 mg/mL, 100 μL/well) and

[6] = system: patient-derived Meso92 cell line (biphasic MPM); assay: MTT cytotoxicity assay, 72 h, Meso92; format: cell-based, human; conditions: exposure time 72 h
[7] = system: human nonmalignant mesothelioma cell line Met5A; assay: MTT cytotoxicity assay, 72 h, Met5A; format: cell-based; conditions: exposure time 72 h
Description: Cell lines and culture conditions
Mouse malignant mesothelioma cancer cell line AB12, human nonmalignant mesothelioma cancer cell line Met5A (mesothelial cells), mouse macrophage cell line J774 and human monocytic cell line THP-1 were obtained from American Type Culture Collection (ATCC) (Rockville, MD, USA). Human malignant mesothelioma cell lines VMC23 (epithelial), Meso82 (sarcomatous), Meso92 (biphasic), were kindly provided by Prof. Walter Berger (Medical University of Vienna). All cells except for J774 were cultured in RPMI and J774 cells were cultured in DMEM. Both types of media were supplemented with 10% FBS and 1% penicillin-streptomycin (10,000 U/mL). Cells were grown in tissue culture flasks (75 cm2 and 25 cm2, SPL Life Sciences Co., Ltd., Korea). All cell lines were grown at 37 °C in a humidified atmosphere of 95% air and 5% CO 2 and passaged when they reached 80–90% confluency. All Au stock solutions were prepared in 1% DMSO in the respected medium, ensuring that cell viability was not inhibited. The Au concentration in the stock solutions was confirmed through inductively coupled plasma optical emission spectrometry. The stock solution of pemetrexed (10 mM) was prepared in Milli -Q water.
Inhibition of c ell viability assay
as §1, §2, §3

[8] = system: AB12 cells phagocytosed by J774 macrophages; assay: Phagocytosis assay, flow cytometry; format: cell-based, mouse; conditions: AB12 treated 100 min at 5 × IC50 (72 h), 16 h with J774 macrophages
Description: page 21: incubated for an additional 50 min. Subsequently, the medium was aspirated, and the purple formazan crystals formed in viable cells were dissolved in DMSO (100 μL/well). Optical densities were measured at 570 nm using a BioTek Synergy H1 microplate and MultiskanTM SkyHigh plate readers. The quantity of viable cells was expressed in terms of treated/control (T/C) values in comparison to untreated control cells, and 50% inhibitory concentrations (IC 50) were calculated from concentration-effect curves by interpolation. An evaluation was based on means from at least three independent experiments, each comprising three […] concentration level. For macrophage analyses, the acute monocytic leukemia -derived THP-1 cell line (ATCC) was used as a model. 1 × 104 THP-1 cells were seeded per well in 96-well plates in RPMI-1640 with 10% FCS and treated for 24 h with 75 nM phorbol 12-myristate 13-acetate (PMA, Sigma- Aldrich) to induce M0 macrophage differentiation. After the differentiation period, PMA was replaced by fresh culture medium to recover for 2h. Afterwards increasing concentrations of 1G, 5A, 5B and 5G were added for a 72-h continuous drug exposure assay. In parallel, the […] were allowed to attach for 24 h. Gold compounds were added to the cells as described for the THP-1 model above. After the incubation period of 72 h, cell viability was determined by an MTT-based assay (EU4U, Biomedica) following the instructions of the manufacturer. DMSO had not impact on the cell viability at the concentrations used. Flow cytometry experiments Phagocytosis assay […] with RPMI, centrifuged (300 × g, 5 min) and labelled with CellTracker Red CMTPX Dye (0.72 μM for 5 × 10^5 cells) at 37°C for 30 minutes in 1 ml of serum -free RPMI. Following S21 page 22: centrifugation of the cells (300 × g, 5 min), 5 ml of fresh RPMI was introduced, and the cells were seeded at a density of 5 x 10^5 cells per well into Cellstar 6-well plates (Greiner Bio-One) (1 ml per well). J774 macrophages (70-80% confluence in a T75 flask) were detached by scraping, centrifuged (300 × g, 5 min). The medium was substituted with 1 ml of DMEM containing CellTracker Green CMFDA (1 μM) and the J774 macrophages were stained at 37°C for 30 minutes. Following centrifugation of the J774 macrophages (300 × g, 5 min), 5 ml of fresh DMEM was introduced, and the macrophages were seeded into a 100 cm2 petri dish (SPL Life Sciences, Korea). After 24 h, the media in AB12 cells was replaced with 1 ml of fresh […] for 100 minutes. After removing the drug-containing media, the cells were trypsinized (0.5 ml), neutralized with 1 ml of RPMI, centrifuged (300 × g, 5 min) and counted. From each sample, […] cells into 6-well plates. AB12 cells and J774 macrophages were co-incubated for 16 h at 37°C and 5% CO2, detached by scraping, centrifuged (300 × g, 5 min), and the pellets were resuspended in PBS for immediate analysis using a CytoFLEX Flow Cytometer (Beckman Coulter, USA). The percentage of phagocytosis was determined by calculating the number of double-positive macrophages (Q2) over the total number of macrophages (Q2 + Q3). […] Annexin V/PI assay AB12 cells were seeded into Cellstar 6-well plates (Greiner Bio-One) at a density of 5 × 10^5 cells/well (1 ml per well). […] The medium was removed and cells were washed with PBS (2 × 1 mL). Afterwards the cells were […] S22

[9] = determined from retention time using RP-HPLC
[10] = system: M0-differentiated THP-1 cells; assay: MTT-based viability assay on M0-differentiated THP-1 cells, 72 h; format: cell-based, human; conditions: 72-h exposure, compared with AB12 cells
Description: incubated for an additional 50 min. Subsequently, the medium was aspirated, and the purple formazan crystals formed in viable cells were dissolved in DMSO (100 μL/well). Optical densities were measured at 570 nm using a BioTek Synergy H1 microplate and MultiskanTM SkyHigh plate readers. The quantity of viable cells was expressed in terms of treated/control (T/C) values in comparison to untreated control cells, and 50% inhibitory concentrations (IC 50) were calculated from concentration-effect curves by interpolation. An evaluation was based on means from at least three independent experiments, each comprising three replicat es per […]
For macrophage analyses, the acute monocytic leukemia -derived THP-1 cell line (ATCC) was used as a model. 1 × 104 THP-1 cells were seeded per well in 96-well plates in RPMI-1640 with 10% FCS and treated for 24 h with 75 nM phorbol 12-myristate 13-acetate (PMA, Sigma-Aldrich) to induce M0 macrophage differentiation. After the differentiation period, PMA was replaced by fresh culture medium to recover for 2h. Afterwards increasing concentrations of 1G, 5A, 5B and 5G were added for a 72-h continuous drug exposure assay. In parallel, the murine mesothelioma cell line AB12 was seeded into 96 -well plates at 2.5 × 10^3 cells/well and were allowed to attach for 24 h. Gold compounds were added to the cells as described for the THP-1 model above. After the incubation period of 72 h, cell viability was determined by an MTT-based assay (EU4U, Biomedica) following the instructions of the manufacturer. DMSO had not impact on the cell viability at the concentrations used. […]

AB12 cells = assay: Annexin V/PI assay (necrosis), flow cytometry; format: cell-based, mouse; conditions: AB12, 5 × IC50 (72 h), short exposure
Description: centrifugation of the cells (300 × g, 5 min), 5 ml of fresh RPMI was introduced, and the cells were seeded at a density of 5 x 10^5 cells per well into Cellstar 6-well plates (Greiner Bio-One) (1 ml per well). J774 macrophages (70-80% confluence in a T75 flask) were detached by scraping, centrifuged (300 × g, 5 min). The medium was substituted with 1 ml of DMEM containing CellTracker Green CMFDA (1 μM) and the J774 macrophages were stained at 37°C for 30 minutes. Following centrifugation of the J774 macrophages (300 × g, 5 min), 5 ml of fresh DMEM was introduced, and the macrophages were seeded into a 100 cm2 petri dish (SPL Life Sciences, Korea). After 24 h, the media in AB12 cells was replaced with 1 ml of fresh RPMI containing compounds of interest at equipotent concentration of 5 × IC50 and incubated for 100 minutes. After removing the drug-containing media, the cells were trypsinized (0.5 ml), neutralized with 1 ml of RPMI, centrifuged (300 × g, 5 min) and counted. From each sample, 2 × 10^5 AB12 cells were seeded into Cellstar 6-well plates (Greiner Bio-One) (1 ml per well).
2 × 10^5 J774 macrophages were detached from a petri dish by scraping and added to AB12 cells into 6-well plates. AB12 cells and J774 macrophages were co-incubated for 16 h at 37°C and 5% CO2, detached by scraping, centrifuged (300 × g, 5 min), and the pellets were resuspended in PBS for immediate analysis using a CytoFLEX Flow Cytometer (Beckman Coulter, USA). The percentage of phagocytosis was determined by calculating the number of double-positive macrophages (Q2) over the total number of macrophages (Q2 + Q3). Dot plots […]
analysis of the flow cytometry data. […]
concentrations for 100 min at 37 °C. […] Cell death was evaluated by flow cytometry using a CytoFLEX Flow Cytometer equipped with a 488 nm laser and a 638 nm laser (Beckman Coulter, Brea, CA, USA). The cells were excited by the 488 nm laser, and fluorescence emissions were detected at 525/40 nm for FITC (Annexin V) and at 610/20 nm for ECD (PI).
The percentage of necrosis was determined by calculating the sum of cells in Q1 and Q2. […]

[11] = system: AB12 cells in BALB/c mice; assay: In vivo vaccination model; set-up: species or system mouse; conditions: within the first 30 days after vaccination, n = 8
Description: Initially, AB12 cells underwent pretreatment with varying concentrations of Au(III) complexes, and the induced cell death and release of desired ICD biomarkers were monitored over time. Upon reaching a cell death rate of 65%–75%, BALB/c mice (n = 8) were subcutaneously injected in the left flank with a vaccine containing 3 × 10^5 of live/dying/dead cells, while the vehicle group received injections of PBS. Seven days postvaccine administration, the immunized mice were rechallenged by inoculating the same number of live AB12 cells (without any prior treatment) into the right flanks (Figure 5A). The progression of tumor growth on the right flanks was monitored using a caliper.
AB12 cells were seeded into Cellstar 24-well plates (Greiner Bio-One) at a density of 1.8 × 104
cells/ml (1 ml per well) and allowed to grow exponentially for 16 hours. Subsequently, the
medium was replaced with 1 ml of fresh medium containing compounds of interest at
predetermined concentrations (with a minimum of 4 wells per treatment condition). These
concentrations were selected to induce 65-75% cell death.
Subsequently, the culture
medium was aspirated, and the cells were washed twice with 1 mL of PBS. The cell
concentration was adjusted to 3 × 10^5 cells (including dead/dying/live cells) per 100 μL of PBS,
and the ratio of dead/live cells was assessed using the Invitrogen Countess 3 cell counter. In
the subsequent experiment, BALB/c mice (8 mice per group) were subcutaneously injected
with 0.1 mL of AB12 cells (3 × 10^5 cells/mL, including dead/dying/live cells) or the
corresponding vehicle (PBS) on the left flank. Tumor growth was monitored daily.
After 7 days, the mice were subcutaneously injected with
0.1 mL of AB12 cells (3 × 10^5 cells/mL, live cells) on the right flank. Regular measurements
of body weights and tumor sizes were taken. Mice that developed palpable tumors were
euthanized for further analysis.

Row | SMILES | IC50 [1] [nM] | IC50 [2] [nM] | IC50 [3] [nM] | IC50 [4] [nM] | IC50 [5] [nM] | IC50 [6] [nM] | IC50 [7] [nM] | phagocytosis rate [8] | LogP [9] | sensitivity of THP-1-derived macrophages [10] | phagocytosis / ICD response (in words) [8] | necrotic cell death (in words) (AB12 cells) | mice that developed tumors after vaccination [11]
1 | COC1c2cccc[c]2[Au-]2([S]C(=[N+](Cc3ccccc3)Cc3ccccc3)[S]2)[n+]2ccccc21.F[P-](F)(F)(F)(F)F (racemic) [4D] | 2300 ± 100 | 1700 ± 200 | 2300 ± 600 | 4200 ± 700 | 2900 ± 700 | 4100 ± 900 | 3200 ± 300 | 35% ± 9% |  |  |  |  | 
2 | COC1c2cccc[c]2[Au-]2([S]C(=[N+]3CCCCC3)[S]2)[n+]2ccccc21.F[P-](F)(F)(F)(F)F (racemic) [4H] | 220 ± 30 | 2400 ± 200 | 2500 ± 100 | 2800 ± 300 | 330 ± 80 | 1700 ± 300 | 680 ± 140 |  | 2.33 |  |  |  | 
3 | F[P-](F)(F)(F)(F)F.c1cc[c]2c(c1)-c1cccc[n+]1[Au-]21[S]C(=[N+]2CCCCCC2)[S]1 (centres unmarked) [1G] | 1100 ± 100 | 220 ± 30 | 500 ± 120 | 720 ± 140 | 500 ± 40 | 1400 ± 200 | 430 ± 90 |  |  | highly sensitive |  |  | 
4 | F[P-](F)(F)(F)(F)F.c1cc[c]2c(c1)-c1cccc[n+]1[Au-]21[S]C(=[N+]2CCCCC2)[S]1 (centres unmarked) [1H] | 91 ± 18 | 620 ± 120 | 370 ± 100 | 1400 ± 100 | 700 ± 90 | 1100 ± 100 | 130 ± 30 |  | 2.45 |  | high levels of phagocytosis | did not result in significant necrotic cell death | 
5 | F[P-](F)(F)(F)(F)F.c1ccc(C[N+](Cc2ccccc2)=C2[S][Au-]3([S]2)[c]2ccccc2Cc2cccc[n+]23)cc1 (centres unmarked) [2D] | 3900 ± 500 | 2300 ± 700 | 2200 ± 400 | 2400 ± 500 | 3000 ± 300 | 5400 ± 1300 | 2500 ± 400 |  |  |  | high levels of phagocytosis | did not result in significant necrotic cell death | 
6 | F[P-](F)(F)(F)(F)F.c1cc[c]2c(c1)Cc1cccc[n+]1[Au-]21[S]C(=[N+]2CCCCC2)[S]1 (centres unmarked) [2H] | 310 ± 80 | 2000 ± 500 | 1900 ± 300 | 8400 ± 1300 | 300 ± 70 | 5200 ± 1200 | 2200 ± 500 |  | 2.56 |  |  |  | 
7 | CC[N+](CC)=C1[S][Au-]2([S]1)[c]1ccccc1Nc1cccc[n+]12.F[P-](F)(F)(F)(F)F (centres unmarked) [5B] | 53 ± 2 | 190 ± 50 | 240 ± 20 | 300 ± 90 | 63 ± 19 | 210 ± 60 | 180 ± 50 |  |  | highly sensitive |  |  | 
8 | CCCC[N+](CCCC)=C1[S][Au-]2([S]1)[c]1ccccc1Nc1cccc[n+]12.F[P-](F)(F)(F)(F)F (centres unmarked) [5C] | 130 ± 30 | 86 ± 22 | 360 ± 70 | 640 ± 140 | 180 ± 30 | 410 ± 60 | 65 ± 15 | 35% ± 9% |  |  |  |  | ≈ 50%
